Experimental data as given in patent publication US9403756B2, “N-phenyl anthranilic acid derivatives and uses thereof” (Ramot at Tel-Aviv University Ltd., priority 2007, dated 2016).

Tests used:
[1] = target: T1, Kv11.1 or Herg (Homo sapiens, UniProt Q12809); assay: Kv channel selectivity, Xenopus oocytes: Kv11.1; format: cell-based; conditions: 25 μM, −10 mV
T1 construct: expressed in transfected cells; host or cells: Xenopus oocytes
Experimental: (§1) Voltage-clamp measurements in Xenopus oocytes were performed as previously described.
(§2) The selectivity of NH29 on other relevant Kv channels expressed in Xenopus oocytes was also studied, and the results are summarized in Table 3 below. The specificity of NH29 at 25 μM and 50 μM towards various Kv channels was tested in Xenopus oocytes, except for Kv1.2 which was checked in transfected CHO cells. The current amplitude of the various Kv channels was tested at the indicated voltages and the effect of the drugs was expressed as fold of the control amplitude measured under the same conditions in the absence of the drug. The data in Table 3 are expressed as mean±SEM of 5-7 separate experiments.

[2] = target: T2, KCNQ2 mutant L206C (Homo sapiens, UniProt O43526, L206C); assay: KCNQ2 S4 mutant L206C in CHO cells; format: cell-based; conditions: 25 μM NH29
T2 construct: expressed in transfected cells; host or cells: CHO cells
Description: (§3) FIGS. 12A-F present the potentiating effect of NH29, an exemplary channel opener compound according to embodiments of the present invention, on selected KCNQ2 mutants. Shown are bar diagrams comparing the potentiating effect of NH29 on native KCNQ2 and KCNQ2 mutants, wherein the mutated amino acids are located at the S1-S2 helix region (FIG. 12A) or S4 helix region (FIG. 12D) and wherein the opener effect is expressed as percent of the control current in the absence of the opener. For comparison, marked as a green line, is the observed current increase of native KCNQ2 by NH29. FIGS. 12B 12C, 12E and 12F present representative traces recorded from CHO cell transfected with the KCNQ2 mutant S122A, S121A, L206C and R201A respectively, before and after external application of 25 μM of NH29 and wherein the membrane potential was stepped from −90 mV holding potential to −40 mV for 1.5 seconds pulse duration.
(§4) Voltage-clamp recordings in CHO cells were performed, using the whole-cell configuration of the patch-clamp technique. Signals were amplified using an Axopatch 200B patch-clamp amplifier (Molecular Devices, Sunnyvale, Calif.), sampled at 2 kHz and filtered at 800 Hz via a 4-pole Bessel low pass filter. […] Series resistances (3-13 MΩ) were compensated (75-90%) and periodically monitored.

[3] = test system: DRG neurons; assay: Current-clamp recordings in cultured DRG neurons; format: cell-based, rat; conditions: 25 μM NH29; 75-250 pA for 400 ms; control 8.7±0.8; n=12
[4] = target: T3, Kv 2.1 (Homo sapiens, UniProt Q14721); assay: Kv channel selectivity, Xenopus oocytes: Kv2.1; format: cell-based; conditions: 25 μM, +30 mV
T3 construct: expressed in transfected cells; host or cells: Xenopus oocytes
Experimental: as §1, §2

[5] = target: T4, KCNQ2 mutant R214W (Homo sapiens, UniProt O43526, R214W); assay: KCNQ2 S4 mutant R214W; format: cell-based; conditions: NH29; to a lesser extent
T4 construct: expressed in transfected cells; host or cells: CHO cells
Description: as §3, §4

[6] = target: T5, KCNQ2 mutant L197G (Homo sapiens, UniProt O43526, L197G); assay: KCNQ2 S4 mutant L197G; format: cell-based; conditions: 25 μM NH29 (25 M [sic])
T5 construct: expressed in transfected cells
Description: as §3, §4

[7] = test system: maximal electroshock seizure model (MES) in ICR mice; assay: Maximal electroshock seizure test (MES); format: in vivo; conditions: Mus musculus, ip; mice; intraperitoneal, 30 minutes before electroshock; 50 mA, 0.2 sec; read-out: ED50, protection against tonic extension caused by MES
Experimental: The anti-convulsant effect was measured by the maximal electroshock seizure model (MES) in ICR mice as previously described. The procedures followed for experimentation and maintenance of the animals were approved by the animal research ethics committee of Tel Aviv University and in accordance with the Guide for the Care and Use of Laboratory Animals (1996, National Academy of Sciences, Washington D.C.). Briefly, maximal electroshock was induced in adult mice by means of two transcorneal electrodes delivering an alternative current of 50 mA at 60 Hz for 0.2 sec using rodent shocker (Hugo Sachs Electronik, type 221). […] The compounds, dissolved in 0.9% saline, were administered intraperitoneally 30 minutes before the electroshock was performed. Animals failing to show tonic hind limb extension were scored as protected and were expressed in percentage.

[8] = test system: hippocampal neurons; assay: Current-clamp recordings in cultured hippocampal neurons; format: cell-based, rat
Experimental: For hippocampal neuronal cultures, Sprague-Dawley rat embryos (E18) were removed by caesarian section and their hippocampi were dissected out. The tissue was digested with papain for 20 min, triturated to a single-cell suspension, and plated at a density of 40,000 cells per ml on a substrate of bovine collagen type IV and 100 μg/ml poly-L-lysine in 13 mm diameter glass coverslips of a 24-multiwell plate. The culture medium consisted of Modified Eagle's Medium containing 5% horse serum (Biological Industries, Beit HaEmek, Israel), B-27 neuronal supplement (Invitrogen, Carlsbad, Calif.), 100 U/ml penicillin, 100 μg/ml streptomycin, and 2 mM glutamine. D-glucose was supplemented to a final concentration of 6 g/l. Cytosine-1-D-arabinofuranoside (5 μM) was added after 5 days to arrest glial cell proliferation.
For electrophysiological recordings hippocampal neurons were used at 10-14 days in culture. All cultures were maintained at 37° C. in humidified air containing 5% CO2.
For current-clamp recordings in primary cultured neurons, the patch pipettes were filled with (in mM): 135 KCl, 1 K2ATP, 1 MgATP, 2 EGTA, 1.1 CaCl2, 5 glucose, 10 HEPES, adjusted with KOH at pH 7.4 (315 mOsm). […] A liquid junction potential of about −15.6 mV was measured between the intracellular and saline solutions and corrected on-line. […]

T4 sequence (O43526 whole entry R214W): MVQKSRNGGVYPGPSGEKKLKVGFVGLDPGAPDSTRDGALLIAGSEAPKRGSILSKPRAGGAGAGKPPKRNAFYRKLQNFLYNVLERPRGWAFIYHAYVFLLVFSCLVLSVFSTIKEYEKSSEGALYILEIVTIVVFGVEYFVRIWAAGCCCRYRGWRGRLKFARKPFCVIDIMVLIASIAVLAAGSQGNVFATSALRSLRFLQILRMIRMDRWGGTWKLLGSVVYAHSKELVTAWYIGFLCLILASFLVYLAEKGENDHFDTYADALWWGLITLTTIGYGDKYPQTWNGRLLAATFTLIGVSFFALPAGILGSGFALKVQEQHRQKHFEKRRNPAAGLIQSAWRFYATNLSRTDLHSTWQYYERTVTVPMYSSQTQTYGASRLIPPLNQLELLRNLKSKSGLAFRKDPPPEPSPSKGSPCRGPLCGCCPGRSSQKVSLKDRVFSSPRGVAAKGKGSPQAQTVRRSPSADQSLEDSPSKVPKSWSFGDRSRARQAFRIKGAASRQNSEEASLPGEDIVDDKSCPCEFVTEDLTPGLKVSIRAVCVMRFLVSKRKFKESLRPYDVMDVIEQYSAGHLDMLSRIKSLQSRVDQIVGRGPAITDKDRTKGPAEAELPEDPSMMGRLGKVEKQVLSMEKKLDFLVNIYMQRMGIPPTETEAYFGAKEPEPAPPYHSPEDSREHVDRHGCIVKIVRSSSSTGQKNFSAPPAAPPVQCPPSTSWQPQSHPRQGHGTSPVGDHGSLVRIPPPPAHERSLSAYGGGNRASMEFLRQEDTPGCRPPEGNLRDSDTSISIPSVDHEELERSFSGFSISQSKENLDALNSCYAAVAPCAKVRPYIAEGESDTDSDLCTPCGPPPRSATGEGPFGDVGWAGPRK
T5 sequence (O43526 whole entry L197G): as the sequence (O43526 whole entry R214W) above, with L197G, W214R counted along it
T2 sequence (O43526 whole entry L206C): as the sequence (O43526 whole entry R214W) above, with L206C, W214R counted along it
T3 sequence (Q14721 whole entry): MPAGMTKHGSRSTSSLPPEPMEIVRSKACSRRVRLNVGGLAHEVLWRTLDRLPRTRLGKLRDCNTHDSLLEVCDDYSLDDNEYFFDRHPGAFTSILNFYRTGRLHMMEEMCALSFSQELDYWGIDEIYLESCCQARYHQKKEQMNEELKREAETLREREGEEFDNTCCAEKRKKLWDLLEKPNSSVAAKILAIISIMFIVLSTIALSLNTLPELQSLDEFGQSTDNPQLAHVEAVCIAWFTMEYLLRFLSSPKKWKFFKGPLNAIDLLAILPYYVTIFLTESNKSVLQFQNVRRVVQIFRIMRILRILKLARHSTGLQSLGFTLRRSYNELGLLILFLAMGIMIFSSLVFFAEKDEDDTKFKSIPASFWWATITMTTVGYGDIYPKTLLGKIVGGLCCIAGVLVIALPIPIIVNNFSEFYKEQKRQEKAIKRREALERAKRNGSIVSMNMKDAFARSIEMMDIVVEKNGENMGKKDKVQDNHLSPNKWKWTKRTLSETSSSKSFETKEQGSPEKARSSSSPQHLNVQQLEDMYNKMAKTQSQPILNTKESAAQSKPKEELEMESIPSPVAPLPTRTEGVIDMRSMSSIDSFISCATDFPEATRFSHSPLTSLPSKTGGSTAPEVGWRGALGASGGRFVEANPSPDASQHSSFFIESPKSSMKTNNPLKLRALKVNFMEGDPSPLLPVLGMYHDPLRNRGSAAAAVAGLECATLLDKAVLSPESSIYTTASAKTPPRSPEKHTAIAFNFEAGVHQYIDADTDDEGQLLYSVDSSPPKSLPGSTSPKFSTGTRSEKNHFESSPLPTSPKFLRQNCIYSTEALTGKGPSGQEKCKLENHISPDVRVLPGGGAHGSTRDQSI
T1 sequence (Q12809 whole entry): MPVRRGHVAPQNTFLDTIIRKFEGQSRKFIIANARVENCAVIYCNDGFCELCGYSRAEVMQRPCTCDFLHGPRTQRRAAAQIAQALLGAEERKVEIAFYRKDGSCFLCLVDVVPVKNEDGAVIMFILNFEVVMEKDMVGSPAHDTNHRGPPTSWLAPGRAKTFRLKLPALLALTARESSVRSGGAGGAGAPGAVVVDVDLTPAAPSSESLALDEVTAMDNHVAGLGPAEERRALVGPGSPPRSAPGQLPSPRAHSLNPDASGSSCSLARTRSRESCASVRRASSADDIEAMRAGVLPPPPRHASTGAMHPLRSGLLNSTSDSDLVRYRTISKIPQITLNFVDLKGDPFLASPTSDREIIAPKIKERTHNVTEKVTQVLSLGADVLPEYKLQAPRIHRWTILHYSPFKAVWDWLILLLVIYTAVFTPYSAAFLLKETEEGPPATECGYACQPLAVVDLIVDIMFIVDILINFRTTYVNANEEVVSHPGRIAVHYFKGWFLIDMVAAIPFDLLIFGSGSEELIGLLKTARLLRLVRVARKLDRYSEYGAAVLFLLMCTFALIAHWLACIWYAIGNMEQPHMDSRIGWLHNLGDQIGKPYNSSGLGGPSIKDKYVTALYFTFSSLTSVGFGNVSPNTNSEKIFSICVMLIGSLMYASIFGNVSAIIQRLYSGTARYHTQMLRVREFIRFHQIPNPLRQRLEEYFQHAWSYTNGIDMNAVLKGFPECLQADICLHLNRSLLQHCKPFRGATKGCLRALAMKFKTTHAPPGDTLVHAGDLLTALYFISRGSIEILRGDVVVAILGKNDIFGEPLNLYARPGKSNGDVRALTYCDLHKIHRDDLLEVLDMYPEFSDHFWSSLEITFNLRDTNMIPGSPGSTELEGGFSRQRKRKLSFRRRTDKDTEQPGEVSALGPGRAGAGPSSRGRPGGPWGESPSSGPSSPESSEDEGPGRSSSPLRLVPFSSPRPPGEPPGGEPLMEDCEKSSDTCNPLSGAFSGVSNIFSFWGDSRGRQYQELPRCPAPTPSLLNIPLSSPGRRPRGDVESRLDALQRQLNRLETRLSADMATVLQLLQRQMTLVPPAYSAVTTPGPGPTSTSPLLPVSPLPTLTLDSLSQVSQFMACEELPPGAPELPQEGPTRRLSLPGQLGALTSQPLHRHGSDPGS

O=C(Cc1cc([N+](=O)[O-])cc([N+](=O)[O-])c1Nc1c(Cl)cc([N+](=O)[O-])cc1Cl)NCCO [NH29]
Fold current amplitude [1]: 1.1 ± 0.02 fold | opener activity on S4 mutant L206C [2]: NH29 activity was preserved | number of evoked action potentials [3]: 0.9±0.1 | Fold current amplitude [4]: 1.2 ± 0.09 fold | sensitivity to the activating effect compared to wild-type Kv7.2 [5]: significantly less sensitive | fold enhancement of current [6]: 1.5 fold

O=C(Cc1cc([N+](=O)[O-])ccc1Nc1c(Cl)cccc1Cl)OCCO [NH25]
ED50 [7]: 12 mg/kg | number of evoked action potentials ([8]; 25 μM NH25, 75-200 pA for 400 ms, control 9.6±1.0, n=8): 2.1±0.5 | hyperpolarization of resting membrane potential ([8]; NH25): −8.5 mV
